Broadly, the IC50 is the point on the concentration scale where inhibition reaches its midpoint. High values mean a need for much substance, low ones inhibition by little substance.

Counter-ions that a name gives are not always drawn.

The assay relates to collagen-induced platelet aggregation. Kind of assay: Inhibition of collagen-induced platelet aggregation in human plasma. The assay is classed as cell-based.

`CCNC(=O)[C@H]1C[C@@H](n2cnc3c(N)nc(NCCc4ccc(CCC(=O)O)cc4)nc32)[C@H](O)[C@@H]1O` (relative stereo) [Example 7a, 2-alpha,3-alphadihydroxy-4β-[2-(p-carboxyethyl-phenethylamino)-9-adenyl]-cyclopentane-1β-N-ethylcarboxamide hydrochloride]: the IC50 is roughly 1500 nM.

Values taken from patent publication US4954504A, “N9 -cyclopentyl-substituted adenine derivatives having adenosine-2 receptor stimulating activity” (Ciba-Geigy Corporation, priority 1988, dated 1990).
